Measured values from patent US6027875A, “Receptor infection assay” (The Salk Institute for Biological Studies, priority 1991, dated 2000).
Read-outs that look alike come from different tables or passages of the source. One block for each compound: values may come before it.

Key:
[1] = target: T1, human glucocorticoid receptor (GR) (Homo sapiens, UniProt P04150); conditions: 293 cell lysate, 20 µL/200 µL assayed
T1 sequence (P04150 1-777): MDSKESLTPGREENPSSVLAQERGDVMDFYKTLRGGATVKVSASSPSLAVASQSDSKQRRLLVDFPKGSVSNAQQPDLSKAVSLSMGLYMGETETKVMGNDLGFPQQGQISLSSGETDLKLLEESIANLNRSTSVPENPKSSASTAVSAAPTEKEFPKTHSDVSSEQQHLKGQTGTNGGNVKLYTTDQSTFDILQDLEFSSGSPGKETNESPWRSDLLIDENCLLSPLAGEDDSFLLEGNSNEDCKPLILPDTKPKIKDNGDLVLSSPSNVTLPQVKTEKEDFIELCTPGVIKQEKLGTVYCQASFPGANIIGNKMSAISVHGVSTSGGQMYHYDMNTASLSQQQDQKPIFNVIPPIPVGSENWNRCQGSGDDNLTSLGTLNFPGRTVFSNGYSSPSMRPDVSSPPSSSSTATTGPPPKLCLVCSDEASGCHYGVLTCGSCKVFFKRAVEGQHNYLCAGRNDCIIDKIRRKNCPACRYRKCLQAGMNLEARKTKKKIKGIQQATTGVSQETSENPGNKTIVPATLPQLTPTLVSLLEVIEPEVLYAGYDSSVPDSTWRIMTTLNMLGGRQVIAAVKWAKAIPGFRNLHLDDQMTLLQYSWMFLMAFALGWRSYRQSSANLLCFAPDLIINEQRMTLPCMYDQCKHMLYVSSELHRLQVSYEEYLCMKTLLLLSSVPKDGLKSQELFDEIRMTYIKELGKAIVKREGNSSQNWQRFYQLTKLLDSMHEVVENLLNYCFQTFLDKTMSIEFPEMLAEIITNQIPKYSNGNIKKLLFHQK
Method: The coinfection assay was carried out in the following manner. Twelve well dishes were seeded with 293 cells at a density of 1.2×10^5 cells per well and grown in Dulbecco's modified Eagle's medium (DME) supplemented with 10% fetal calf serum. Assuming that the hGR4, MLUC3, and dl 309 virus stocks were 10^8 PFU/ml, the next day cells were infected with various combinations of these stocks in triplicate at a multiplicity of infection corresponding to 50. Dexamethasone dissolved in 50% ethanol or the control vehicle alone were each diluted into DME supplemented with 10% charcoal-adsorbed fetal calf serum at a final concentration of 0.1 μM. These mixtures were added to cells adsorbed with virus for thirty minutes. Cells were harvested at 18, 22 and 89 hours after infection by scraping them from the plate and washing the cell pellets in phosphate-buffered saline, and resuspending them in 100 microliters of 100 mM K2 HPO4 (pH 7.8), 1 mM dithiothreitol). Cell lysates were prepared by three cycles of sequential freezing and thawing in a dry ice/ethanol and 37° C. baths. Cell debris was pelleted by centrifugation in a microcentrifuge for 5 minutes at 4° C. […] Luciferase enzyme activity was assayed by automatic injection of 1 mM d-luciferin (Analytical Luminescence Laboratories) as described in de Wet et al. Mol. Cell. Biol. 7, 725 (1987) using a Berthold luminometer.
The orientation is reversed relative to the major late promoter with the RSV long term repeat promoter driving the expression of the human glucocorticoid receptor DNA terminating with SV40 polyadenylation sequence. This orientation removes the tripartite leader from functioning in its usual manner. A separate vector for the receptor DNA is constructed similarly. The two vectors are separately used to infect 293 cells. First, 293 cells are infected with the vector bearing the human glucocorticoid receptor DNA. Successful infection can be tested by picking plaques and doing a Western analysis with human glucocorticoid receptor antibodies or one can measure the ligand binding properties of the extracts or one can do a restriction map analysis to assure proper infection with the human glucocoid receptor adenovirus DNA. Successfully infected cells are then infected with the reporter virus vector. Alternatively, both vectors could be mixed on, for example, 293 cells. Where host cells not bearing a complement of the adenovirus genome are used, one may coinfect with wild-type virus in order to supply the missing complement. […] The material to be tested may either be added in at the beginning or at such twenty-two hour period. The cells are then tested for measurement of the reporter activity. In the case of the exemplified luciferase gene, that measurement takes the form of quantitating light emission from luciferin oxidized by any luciferase present.

[2] = target: T1, human glucocorticoid receptor (GR); experiment: Functional assay with recombinant receptor (hGR4) and reporter (MLUC3) viruses in 293 cells, luciferase activity; conditions: 22 hours after infection; for Luciferase response to dex mimicked by other adrenocorticosteroids: hGR4 + MLUC3 coinfected 293 cells
From the text: A reporter virus (MLUC3; also variously referred to as Ad3MLUC, MpCV3MTV-LUC-Ad and ADMLUC) was constructed containing the mouse mammary tumor virus LTR linked to the firefly luciferase cDNA with an SV40 polyadenylation signal (Hollenberg, et al., Cell 55, 899 (1988)) similar to the receptor virus hGR4 above. The two viruses, hGR4 and MLUC3, were coinfected into 293 cells growing in DMEM suplemented with 10% charcoal adsorbed fetal calf serum ±10^-7 M dexamethasone (dex), and cellular extracts were prepared by Triton X-100™ brand non-ionic surfactant lysis at 22 hours after infection. (Williams, et al., Anal. Biochem 176, 28 (1989)) These were tested for luciferase activity by incubating with ATP and luciferin in a suitable buffer system. (de Wet, et al., Mol. Cell Biol. 7, 725 (1987)). Light liberated in this reaction was measured using a luminometer.

[3] = target: T1, human glucocorticoid receptor (GR); experiment: Detection of glucocorticoids: cells infected with hGR4 and MLUC3, luciferase activity; type: cell-based; design: expressed in transfected cells; host or cells: 293 cells (human embryonic kidney) infected with recombinant adenovirus hGR4 and reporter virus MLUC3; A3: 293 or CV-1 cells; conditions: 10^-8 M cortisol, 18 hours p.i., read-out: Share of the maximal transcriptional response
Method: Cells were infected with hGR4 and MLUC3 recombinant adenoviruses in the presence of varying concentrations of cortisol from 10^-11 M to 10^-5 M in 3-fold dilution steps. At 18 hours p.i., lysates were prepared and luciferase activity was measured. Approximately 10% of the maximal transcriptional response was detected at 10^-8 M cortisol. Since standard assay volumes are 200 μl per well in a 96 sample microliter dish, this represents about 2×10^-12 mole or about 0.6 ng of cortisol.

[4] = target: T1, human glucocorticoid receptor (GR); experiment: Luciferase-based coinfection assay with unpurified virus stocks in 293 or CV-1 cells; design: expressed in transfected cells; host or cells: 293 cells (human embryonic kidney) infected with recombinant adenovirus hGR4 and reporter virus MLUC3; A3: 293 or CV-1 cells; conditions: 293 or CV-1 cells infected with both stocks, ten PFU/cell; lysates at twenty-two hours after infection
From the text: With the unpurified virus stocks, their ability to measure hormone-responsiveness was accomplished using various adrenocorticosteroid, in the luciferase based assay. Assuming that the titer of the viral stocks was approximately 10^8 PFU/ML, either 293 cells or CV-1 cells that have low endogenous GR levels were infected with both stocks at a multiplicity of infection equal to ten PFU/cell. At twenty-two hours after infection (empirically determined to be the time when maximal GR synthesis occurs by Western blot measurement of protein), cell lysates were prepared and tested for luciferase activity.
Within the concentration range of 10^-10 and 10^-5 M of corticosteroids, dose response curves were generated that appeared by all qualitative criteria to resemble the binding activities of those glucocorticoids for the receptor protein.

Response of cell lysate (luciferase activity), with CV ([1]; co-infection HGR + DL309, 18 HRS after co-infection, DEX 3 × 10^-9): 35 (28%)
Response of cell lysate (luciferase activity), with CV ([1]; co-infection HGR + DL309, 18 HRS after co-infection, DEX 10^-7 M): 33
Response of cell lysate (luciferase activity), with CV ([1]; co-infection HGR + DL309, 22 HRS after co-infection, DEX 3 × 10^-9): 40 (19%)
Response of cell lysate (luciferase activity), with CV ([1]; co-infection HGR + DL309, 22 HRS after co-infection, DEX 10^-7 M): 42 (38%)
Response of cell lysate (luciferase activity), with CV ([1]; co-infection HGR + DL309, 89 HR after co-infection, DEX 3 × 10^-9): 22 (14%)
Response of cell lysate (luciferase activity), with CV ([1]; co-infection HGR + DL309, 89 HR after co-infection, DEX 10^-7 M): 27 (4%)
Response of cell lysate (luciferase activity), with CV ([1]; co-infection HGR + MTV-LUC, 18 HRS after co-infection, DEX 3 × 10^-9): 30015
Response of cell lysate (luciferase activity), with CV ([1]; co-infection HGR + MTV-LUC, 18 HRS after co-infection, DEX 10^-7 M): 72864
Response of cell lysate (luciferase activity), with CV ([1]; co-infection HGR + MTV-LUC, 22 HRS after co-infection, DEX 3 × 10^-9): 48858 (14%)
Response of cell lysate (luciferase activity), with CV ([1]; co-infection HGR + MTV-LUC, 22 HRS after co-infection, DEX 10^-7 M): 90718 (18%)
Response of cell lysate (luciferase activity), with CV ([1]; co-infection HGR + MTV-LUC, 89 HR after co-infection, DEX 3 × 10^-9): 1246 (68%)
Response of cell lysate (luciferase activity), with CV ([1]; co-infection HGR + MTV-LUC, 89 HR after co-infection, DEX 10^-7 M): 1065 (7%)
Response of cell lysate (luciferase activity), with CV ([1]; co-infection MTV-LUC + DL309, 18 HRS after co-infection, DEX 3 × 10^-9): 3643 (20%)
Response of cell lysate (luciferase activity), with CV ([1]; co-infection MTV-LUC + DL309, 18 HRS after co-infection, DEX 10^-7 M): 19130
Response of cell lysate (luciferase activity), with CV ([1]; co-infection MTV-LUC + DL309, 22 HRS after co-infection, DEX 3 × 10^-9): 5095 (12%)
Response of cell lysate (luciferase activity), with CV ([1]; co-infection MTV-LUC + DL309, 22 HRS after co-infection, DEX 10^-7 M): 24215 (4%)
Response of cell lysate (luciferase activity), with CV ([1]; co-infection MTV-LUC + DL309, 89 HR after co-infection, DEX 3 × 10^-9): 53 (48%)
Response of cell lysate (luciferase activity), with CV ([1]; co-infection MTV-LUC + DL309, 89 HR after co-infection, DEX 10^-7 M): 151 (23%)
Response of cell lysate (luciferase activity), with CV ([1]; infection DL309 only, 18 HRS after co-infection, DEX 3 × 10^-9): 28 (5%)
Response of cell lysate (luciferase activity), with CV ([1]; infection DL309 only, 18 HRS after co-infection, DEX 10^-7 M): 32
Response of cell lysate (luciferase activity), with CV ([1]; infection DL309 only, 22 HRS after co-infection, DEX 3 × 10^-9): 42 (22%)
Response of cell lysate (luciferase activity), with CV ([1]; infection DL309 only, 22 HRS after co-infection, DEX 10^-7 M): 43 (11%)
Response of cell lysate (luciferase activity), with CV ([1]; infection DL309 only, 89 HR after co-infection, DEX 3 × 10^-9): 22 (24%)
Response of cell lysate (luciferase activity), with CV ([1]; infection DL309 only, 89 HR after co-infection, DEX 10^-7 M): 23 (7%)
Additional enhancement of the luciferase response by coinfection with hGR4 ([2]; MLUC3 + hGR4 (not with parental dl 309), 10^-7 M dex, 293 cells, 0.1 µM): 5 fold
Stimulation of luciferase activity ([2]; MLUC3 alone, 10^-7 M dex, 293 cells, 0.1 µM): 10 fold
Compound: C[C@@H]1C[C@H]2[C@@H]3CCC4=CC(=O)C=C[C@]4(C)[C@@]3(F)[C@@H](O)C[C@]2(C)[C@@]1(O)C(=O)CO [DEX, Dexamethasone]

Compound: C[C@]12CCC(=O)C=C1CC[C@@H]1[C@@H]2[C@@H](O)C[C@]2(C=O)[C@@H](C(=O)CO)CC[C@@H]12 [aldosterone]
Luciferase response to dex mimicked by other adrenocorticosteroids [2]: mimicked

Compound: C[C@]12C[C@H](O)[C@H]3[C@@H](CCC4=CC(=O)CC[C@@]43C)[C@@H]1CC[C@@H]2C(=O)CO [corticosterone]
Luciferase response to dex mimicked by other adrenocorticosteroids [2]: mimicked

Luciferase response to dex mimicked by other adrenocorticosteroids [2]: mimicked
activation at 0.01 µM [3]: ~10%
Compound: C[C@]12CCC(=O)C=C1CC[C@@H]1[C@@H]2[C@@H](O)C[C@@]2(C)[C@H]1CC[C@]2(O)C(=O)CO [cortisol]

Compound: CC1=C(/C=C/C(C)=C/C=C/C(C)=C/C(=O)O)C(C)(C)CCC1 [retinoic acid]
Induction of luciferase activity (inducer in this system) [4]: ineffective inducers

Compound: estrogen
Luciferase response to dex mimicked by other adrenocorticosteroids [2]: mimicked
Induction of luciferase activity (inducer in this system) [4]: ineffective inducers
